{"source": "patent US7989435B2", "about": "“Phytic citrate compounds and process for preparing the same” (IP-6 Research, Inc., priority 2005, dated 2011)", "key": {"[1]": {"test": "Biodegradability, 301 A DOC Die-Away Test (OECD Guidelines)", "method": "The biodegradability of phytic citrate was evaluated according to the method of “301 A DOC Die-Away Test” (1993), OECDGuidelines for Testing of Chemicals."}, "[2]": {"test": "Comparison of chelating effects, divalent cation electrode and ion analyzer", "format": "binding", "set-up": "unit not given here", "method": "The chelating effects of the various chelators were measured by the conventional method known to an artisan in the art. The concentration of the ions chelated by the chelator was determined using a divalent cation electrode (e.g., Model 93-32, made by Orion Research Incorporated) and an ion analyzer (e.g., Model EA 920, made by Orion Research Incorporated)."}, "[3]": {"conditions": "at 66 grams/liter; cited from earlier work"}, "[4]": {"test": "Re-dissolution rate of Fe^2+, FIG. 2", "conditions": "in brain tissues, compared with phytic acid and EDTA"}, "[5]": {"conditions": "7 days, test suspension / reference flask"}, "[6]": {"conditions": "14 days, test suspension / reference flask"}}, "note": "“And” between values parts separate entries of the source, which are not always exact repeats. Identical values can stand only once. Like-named read-outs stand apart in the source and are kept apart here."}
{"compound": "Nc1ccccc1", "note": "[Aniline Reference, Aniline, reference compound]", "values": [{"measurement": "Degradation (%) in days", "setting": "[1]; [5]", "value": ">90 (100) %"}, {"measurement": "Degradation (%) in days", "setting": "[1]; [6]", "value": ">90 (99.7) %"}]}
{"compound": "O=C(O)CC(O)(CC(=O)O)C(=O)O", "note": "[Citric acid]", "values": [{"measurement": "Ca^2+ (conc. of ions chelated)", "setting": "[2]", "value": 3.50}]}
{"compound": "O=C(O)CN(CCN(CC(=O)O)CC(=O)O)CC(=O)O", "note": "[EDTA, ethylenediaminetetraacetic acid]", "values": [{"measurement": "Ca^2+ (conc. of ions chelated)", "setting": "[2]", "value": 10.70}]}
{"compound": "O=C(O)[C@H](O)[C@@H](O)[C@H](O)[C@H](O)CO", "note": "[Gluconic acid]", "values": [{"measurement": "Ca^2+ (conc. of ions chelated)", "setting": "[2]", "value": 1.20}]}
{"compound": "CC(O)C(=O)O", "note": "(stereo not drawn) [Lactic acid]", "values": [{"measurement": "Ca^2+ (conc. of ions chelated)", "setting": "[2]", "value": 1.07}]}
{"compound": "O=P(O)(O)O[C@H]1[C@H](OP(=O)(O)O)[C@@H](OP(=O)(O)O)[C@H](OP(=O)(O)O)[C@@H](OP(=O)(O)O)[C@H]1OP(=O)(O)O", "note": "[Phytic acid]", "values": [{"measurement": "Ca^2+ (conc. of ions chelated)", "setting": "[2]; pH 3", "value": 9.73}, {"measurement": "Ca^2+ (conc. of ions chelated)", "setting": "[2]; pH 5", "value": 10.55}, {"measurement": "Ca^2+ (conc. of ions chelated)", "setting": "[2]; pH 7", "value": 10.57}, {"measurement": "pH of aqueous solution", "setting": "[3]", "value": 0.9}]}
{"compound": "Polyphosphoric acid", "values": [{"measurement": "Ca^2+ (conc. of ions chelated)", "setting": "[2]", "value": 3.0}]}
{"compound": "phytic hexa-citrate [Phytic citrate]", "values": [{"measurement": "Ca^2+ (conc. of ions chelated)", "setting": "[2]", "value": 12.24}, {"measurement": "Degradation (%) in days", "setting": "[1]; 7 days, abiotic sterile control", "value": "<10", "unit": "%"}, {"measurement": "Degradation (%) in days", "setting": "[1]; 7 days, absorption control", "value": "<10", "unit": "%"}, {"measurement": "Degradation (%) in days", "setting": "[1]; [5]", "value": ">90 (98.0) % and >90 (97.6) % and >90 (99.4) %"}, {"measurement": "Degradation (%) in days", "setting": "[1]; 14 days (mean of test suspension flasks 1-3)", "value": ">90 (99.5) %"}, {"measurement": "Degradation (%) in days", "setting": "[1]; 14 days, abiotic sterile control", "value": "<10", "unit": "%"}, {"measurement": "Degradation (%) in days", "setting": "[1]; 14 days, absorption control", "value": "<10", "unit": "%"}, {"measurement": "Degradation (%) in days", "setting": "[1]; [6]", "value": ">90 (98.6) % and >90 (100) %"}, {"measurement": "Biodegradability (conclusion in words)", "setting": "[1]; results of Table 3", "value": "readily biodegradable"}, {"measurement": "Re-dissolution rate of Fe^2+", "setting": "[4]", "value": "superior redissolution capability to phytic acid and EDTA"}]}
